# Like-named read-outs stand apart in the source and are kept apart here.
# Tests used:
# [1] = system: 4T-1-luc cells; assay type: in vivo; conditions: for bioluminescence intensity of lung: Day32 after inoculation, ex vivo; for total number of metastasis found by the ex-vivo studies: control group 10; for Metastasis on Liver, mice with metastasis / Metastasis on Liver, total number / Metastasis on Lung, mice with metastasis / Metastasis on Lung, total number / Metastasis on ribs, mice with metastasis / Metastasis on ribs, total number: ex-vivo
# Protocol: Design of the in vivo study: A total of 44 female BALB/c mice (12 mice for maximal tolerance dose (MTD) study; 32 mice for efficacy study) were used in the 4T-1-Luc study. The animals were specific pathogen free and approximately 4-5 weeks old at the initiation of the study.
# Murine breast carcinoma cells 4T-1-luc cells used in this study, were cultured in a 37° C. incubator containing 5% CO2 with 10% FBS and 2 μg/mL puromycin in RPMI1640 medium. The cells were sub-cultured within 10 passages before inoculated into the mice. 2*10^5 4T-1-luc cells suspended in 20 uL PBS were orthotopically injected into the 4th fat pat on the right side of each mouse. Before inoculation, mice were pre-anesthetized with 30 mg/kg Zoletil mixed with 10 mg/kg Xylazine and kept anesthetized with 3-4% isoflurane. Injected subcutaneously 20 mg/kg Tolfedine as painkillers once a day for 3 days. The day of cell inoculation was denoted as Day0. On Day3, 16 bearing-tumor mice were randomized into 4 groups (4 mice per group) according to body weight and BLI signal. The information of the preparation of Hit 1 dosing solution is as follow:
# (§1) For 2-({6-phenylthieno[2,3-d]pyrimidin-4-yl}oxy)benzamide (Hit1, MIC5022) 5 mg/kg dose, the preparation was like that: weighed 2.5 mg of Hit 1, added in 0.50 ml of ethanol, vortex or magnetic stirring enough to mix well (all compound dissolved will be better), added in 2.00 ml of PEG400, vortex or magnetic stirring until getting a clear solution (no more than 60° C. water base ultrasonicate may be needed), added 2.50 ml of water to get clear solution. The concentration was 0.5 mg/ml, the storage condition was at 4C temperature and the preparation frequency was each 5 days.
# as §1, with “MIC5022) 30” for “MIC5022) 5”, “weighed 15” for “weighed 2.5”, “was 3” for “was 0.5”, “4C temperature,” for “4C temperature”
# The concentration was 15 mg/ml, the storage condition was at 4C temperature, and the preparation frequency was each 5 days.
# Each mouse has been observed for changes in general appearance and behavior every day for 4 weeks after grouping. The abnormal phenomena were recorded.
# Body weight: Mice were measured and recorded twice a week after grouping, and during the dose period. Animals were also weighed in the event of accidental death or near-death euthanasia. Tumor volume: The tumor volume (V) was calculated as follows: V=(length×width2)/2. Tumor volume was measured twice per week. Tumor growth inhibition (TGI), TGI=(1−(T/C)×100%; T and C as the mean tumor volumes of the treatment and control groups on the measurement day.
# The individual relative tumor volume (RTV) was calculated as follows: RTV=Vt/V0, where Vt was the volume on each day, and V0 was the volume at the beginning of the treatment. IVIS imaging: We used IVIS® In Vivo Imaging Systems (PerkinElmer, Waltham, MA) which allow high sensitivity and high resolution in vivo BLI and fluorescence imaging (FLI) across a wide range of wavelengths. Animals were imaged up to five at a time under 3-4% isoflurane gas anesthesia. Each mouse has been injected with D-Luciferin and imaged 10-15 minutes after the injection. BLI signal was quantified in regions of interest (ROIs) drawn around tumors or tissues ex vivo and the signal is expressed as photons per second, representing the flux radiating omni-directionally from the user-defined region […] post grouping (Day3, Day10, Day14, Day17, Day21, Day24, Day28 and Day31).
# [2] = system: 4T-1-luc cells; assay type: in vivo; conditions: Day 15
# [3] = system: IL17 release; test: Inhibition of IL17 release (inflammation model); conditions: Homo sapiens, read-out: EC50, IL17 release
# [4] = system: CCL2 release; conditions: Homo sapiens, Keratinocyte, read-out: EC50, CCL2 release
# Protocol: For this purpose a model for the inhibition of CCL2 release from IL-4, IL-13, IL-22 and IFNγ-stimulated primary human keratinocytes (Eczematous inflammation) was used and also an assay for the inhibition of IL-8 release from IL-17A and TNFα (Psoriatic inflammation). […] Finally, migration assay by MB231cell line was performed.
# [5] = G2 5 mg/kg, Day31 after inoculation
# [6] = G3 30 mg/kg, Day31 after inoculation
# [7] = G4 150 mg/kg, Day31 after inoculation
compound,measurement,setting,value
"NC(=O)c1ccccc1Oc1ncnc2sc(-c3ccccc3)cc12 [Hit 1, 2-({6-phenylthieno[2,3-d]pyrimidin-4-yl}oxy)benzamide]",bioluminescence intensity of lung,[1]; 5 mg/kg,1.07E+06
same,total number of metastasis found by the ex-vivo studies,[1]; 5 mg/kg,3
same,bioluminescence intensity of lung,[1]; 30 mg/kg,1.66E+06
same,total number of metastasis found by the ex-vivo studies,[1]; 30 mg/kg,2
same,bioluminescence intensity of lung,[1]; 150 mg/kg,1.56E+06
same,total number of metastasis found by the ex-vivo studies,[1]; 150 mg/kg,5
same,reduction of the spread of the tumor (bioluminescence vs control),"[1]; 5, 30, 150 mg/kg, Day31",6-10 folds
same,metastasis in liver and ribs,"[1]; 5, 30, 150 mg/kg, ex-vivo images and manual counting",completely eliminated
same,reduction of metastasis development (lung bioluminescence vs control),"[1]; 5, 30 and 150 mg/kg, Day32",about five
same,"Animal bioluminescence imaging intensity, Mean","[1]; G2 5 mg/kg p.o. QD, Day 3",2.07E+07 10^8 p/s
same,"Animal bioluminescence imaging intensity, Mean","[1]; G2 5 mg/kg p.o. QD, Day 10",1.56E+08 10^8 p/s
same,"Animal bioluminescence imaging intensity, Mean","[1]; G2 5 mg/kg p.o. QD, Day 17",3.39E+08 10^8 p/s
same,"Animal bioluminescence imaging intensity, Mean","[1]; G2 5 mg/kg p.o. QD, Day 21",4.78E+08 10^8 p/s
same,"Animal bioluminescence imaging intensity, Mean","[1]; G2 5 mg/kg p.o. QD, Day 24",3.52E+08 10^8 p/s
same,"Animal bioluminescence imaging intensity, Mean","[1]; G2 5 mg/kg p.o. QD, Day 28",4.34E+08 10^8 p/s
same,"Animal bioluminescence imaging intensity, Mean","[1]; G2 5 mg/kg p.o. QD, Day 31",5.01E+08 10^8 p/s
same,bioluminescence intensity,"[1]; G2 5 mg/kg, Day3 after inoculation",0.21*10^7±0.056*10^8 p/s
same,tumor volume (TV),"[1]; G2 5 mg/kg, Day10 after inoculation",86.53±6.03 mm^3
same,bioluminescence intensity,[1]; [5],5.01*10^8±2.67*10^8 p/s
same,relative tumor volume (RTV),[1]; [5],5.99±0.61
same,tumor volume (TV),[1]; [5],515.90±53.18 mm^3
same,"Metastasis on Liver, mice with metastasis",[1]; G2 (5 mg/kg),(0/4 mice)
same,"Metastasis on Liver, total number",[1]; G2 (5 mg/kg),totally 0
same,"Metastasis on Lung, mice with metastasis",[1]; G2 (5 mg/kg),2/4 and (2/4 mice)
same,"Metastasis on Lung, total number",[1]; G2 (5 mg/kg),totally 3
same,"Metastasis on ribs, mice with metastasis",[1]; G2 (5 mg/kg),(0/4 mice)
same,"Metastasis on ribs, total number",[1]; G2 (5 mg/kg),totally 0
same,"TV, RTV and TW compared with G1","[1]; G2, G3 and G4 (5, 30, 150 mg/kg), p>0.05",no significant differences
same,tumor weight (TW),[1]; G3 30 mg/kg,0.95 ± 0.16 g
same,"Animal bioluminescence imaging intensity, Mean","[1]; G3 30 mg/kg p.o. QD, Day 3",2.31E+07 10^8 p/s
same,"Animal bioluminescence imaging intensity, Mean","[1]; G3 30 mg/kg p.o. QD, Day 10",2.71E+08 10^8 p/s
same,"Animal bioluminescence imaging intensity, Mean","[1]; G3 30 mg/kg p.o. QD, Day 17",1.32E+08 10^8 p/s
same,"Animal bioluminescence imaging intensity, Mean","[1]; G3 30 mg/kg p.o. QD, Day 21",1.30E+08 10^8 p/s
same,"Animal bioluminescence imaging intensity, Mean","[1]; G3 30 mg/kg p.o. QD, Day 24",2.08E+08 10^8 p/s
same,"Animal bioluminescence imaging intensity, Mean","[1]; G3 30 mg/kg p.o. QD, Day 28",4.49E+08 10^8 p/s
same,"Animal bioluminescence imaging intensity, Mean","[1]; G3 30 mg/kg p.o. QD, Day 31",3.26E+08 10^8 p/s
same,bioluminescence intensity,"[1]; G3 30 mg/kg, Day3 after inoculation",0.23*10^7±0.075*10^8 p/s
same,tumor volume (TV),"[1]; G3 30 mg/kg, Day10 after inoculation",90.30±7.67 mm^3
same,bioluminescence intensity,[1]; [6],3.26*10^8±0.89*10^8 p/s
same,relative tumor volume (RTV),[1]; [6],5.33±0.64
same,tumor volume (TV),[1]; [6],489.69±85.03 mm^3
same,"Metastasis on Liver, mice with metastasis",[1]; G3 (30 mg/kg),(0/4 mice)
same,"Metastasis on Liver, total number",[1]; G3 (30 mg/kg),totally 0
same,"Metastasis on Lung, mice with metastasis",[1]; G3 (30 mg/kg),2/4 and (2/4 mice)
same,"Metastasis on Lung, total number",[1]; G3 (30 mg/kg),totally 2
same,"Metastasis on ribs, mice with metastasis",[1]; G3 (30 mg/kg),(0/4 mice)
same,"Metastasis on ribs, total number",[1]; G3 (30 mg/kg),totally 0
same,RTV course,"[1]; G3 group 30 mg/kg, after day 24",clear decrease in the RTV
same,tumor weight (TW),[1]; G4 150 mg/kg,1.05 ± 0.19 g
same,bioluminescence intensity,"[1]; G4 150 mg/kg, Day3 after inoculation",0.21*10^7±0.054*10^8 p/s
same,tumor volume (TV),"[1]; G4 150 mg/kg, Day10 after inoculation",85.22±10.26 mm^3
same,bioluminescence intensity,[1]; [7],5.08*10^8±2.16*10^8 p/s
same,relative tumor volume (RTV),[1]; [7],5.92±0.63
same,tumor volume (TV),[1]; [7],515.66±98.37 mm^3
same,"Metastasis on Liver, mice with metastasis",[1]; G4 (150 mg/kg),(0/4 mice)
same,"Metastasis on Liver, total number",[1]; G4 (150 mg/kg),totally 0
same,"Metastasis on Lung, total number",[1]; G4 (150 mg/kg),totally 5
same,"Metastasis on ribs, mice with metastasis",[1]; G4 (150 mg/kg),(0/4 mice)
same,"Metastasis on ribs, total number",[1]; G4 (150 mg/kg),totally 0
same,"Animal bioluminescence imaging intensity, Mean","[1]; Q4 150 mg/kg p.o. QD, Day 3",2.07E+07 10^8 p/s
same,"Animal bioluminescence imaging intensity, Mean","[1]; Q4 150 mg/kg p.o. QD, Day 10",4.97E+07 10^8 p/s
same,"Animal bioluminescence imaging intensity, Mean","[1]; Q4 150 mg/kg p.o. QD, Day 15",1.33E+08 10^8 p/s
same,"Animal bioluminescence imaging intensity, Mean","[1]; Q4 150 mg/kg p.o. QD, Day 17",2.43E+08 10^8 p/s
same,"Animal bioluminescence imaging intensity, Mean","[1]; Q4 150 mg/kg p.o. QD, Day 21",2.94E+08 10^8 p/s
same,"Animal bioluminescence imaging intensity, Mean","[1]; Q4 150 mg/kg p.o. QD, Day 24",3.20E+08 10^8 p/s
same,"Animal bioluminescence imaging intensity, Mean","[1]; Q4 150 mg/kg p.o. QD, Day 28",5.27E+08 10^8 p/s
same,"Animal bioluminescence imaging intensity, Mean","[1]; Q4 150 mg/kg p.o. QD, Day 31",5.08E+08 10^8 p/s
same,death or abnormal behavior during the experiment,"[1]; efficacy study, 5, 30, 150 mg/kg p.o. QD",no mice death or abnormal behavior of mice
same,safety conclusion,"[1]; mouse, in vivo",relatively biologically safe
same,"Animal bioluminescence imaging intensity, Mean",[2]; G2 5 mg/kg p.o. QD,1.69E+08 10^8 p/s
same,"Animal bioluminescence imaging intensity, Mean",[2]; G3 30 mg/kg p.o. QD,1.09E+08 10^8 p/s
same,EC50,[3],3.78 µM
same,EC50,[4],411 nM
